The text below walks through data of paper PMC10803289, “Transport and inhibition mechanism of the human SGLT2–MAP17 glucose transporter” (Nature Structural & Molecular Biology, 2023).

One experiment concerns the target T1, hSGLT2 S74A (Homo sapiens, UniProt P31639, S74A).
T1 construct: expressed in transfected cells; host or cells: Expi293 cells, crude membrane fraction
The experiment is described as follows: cell-based. The source says: hSGLT2 complementary DNA and human MAP17 cDNA were synthesized and codon-optimized for expression in human cell lines. Both cDNAs were cloned into the pcDNA3.4 vector. The hSGLT2 sequence was fused with an N-terminal signal sequence from human trypsinogen 1, a His10 tag, and sfGFP, followed by a human rhinovirus 3C protease (HRV3C protease) recognition site. Point mutations were introduced into this construct using site-directed mutagenesis. These plasmids were utilized for all experimental procedures conducted in this study.
HEK293 cells (ECACC 85120602) were maintained in Dulbecco’s modified Eagle medium (Gibco) supplemented with 10% fetal bovine serum (Thermo Scientific), 2 mM L-glutamine, 100 U ml^−1 benzylpenicillin and 100 µg ml^−1 streptomycin at 37 °C in a humidified atmosphere (5% CO2 in air). HEK293 cells were seeded at 1.0 × 10^5 cells per well in poly-L-lysine coated 24-well plates. […]
(§1) Cell lysates were deproteinized by adding acetonitrile containing candesartan as the internal standard. The α-MG concentration was quantified via liquid chromatography–tandem mass spectrometry (LC–MS/MS) using the internal standard method.
(§2) Cellular protein content was determined using a bicinchoninic acid protein assay kit (Thermo Fisher Scientific). The uptake of α-MG was expressed as the ratio of concentration in the cells (in pmol per mg protein) to concentration in the medium (in pmol μl^−1); this is known as the cell-to-medium ratio (in μl per mg protein).
In the inhibition study, the cell-to-medium ratio of cells transfected with the empty vector was used as the background. The specific α-MG uptake was calculated by subtracting this background from the total cell-to-medium ratio and normalized to the uptake achieved without the inhibitor. IC50 was calculated via nonlinear regression using GraphPad Prism 8.4.3.
The concentrations of the extract solution from the filter plate and of the cell lysate were quantified using a tandem mass spectrometry QTRAP6500 System (SCIEX) coupled with an ACQUITY UPLC system (Waters) using the internal standard method. […]

Another experiment addresses T2, hSGLT2 D201A (Homo sapiens, UniProt P31639, D201A).
T2 sequence (P31639 1-672 D201A): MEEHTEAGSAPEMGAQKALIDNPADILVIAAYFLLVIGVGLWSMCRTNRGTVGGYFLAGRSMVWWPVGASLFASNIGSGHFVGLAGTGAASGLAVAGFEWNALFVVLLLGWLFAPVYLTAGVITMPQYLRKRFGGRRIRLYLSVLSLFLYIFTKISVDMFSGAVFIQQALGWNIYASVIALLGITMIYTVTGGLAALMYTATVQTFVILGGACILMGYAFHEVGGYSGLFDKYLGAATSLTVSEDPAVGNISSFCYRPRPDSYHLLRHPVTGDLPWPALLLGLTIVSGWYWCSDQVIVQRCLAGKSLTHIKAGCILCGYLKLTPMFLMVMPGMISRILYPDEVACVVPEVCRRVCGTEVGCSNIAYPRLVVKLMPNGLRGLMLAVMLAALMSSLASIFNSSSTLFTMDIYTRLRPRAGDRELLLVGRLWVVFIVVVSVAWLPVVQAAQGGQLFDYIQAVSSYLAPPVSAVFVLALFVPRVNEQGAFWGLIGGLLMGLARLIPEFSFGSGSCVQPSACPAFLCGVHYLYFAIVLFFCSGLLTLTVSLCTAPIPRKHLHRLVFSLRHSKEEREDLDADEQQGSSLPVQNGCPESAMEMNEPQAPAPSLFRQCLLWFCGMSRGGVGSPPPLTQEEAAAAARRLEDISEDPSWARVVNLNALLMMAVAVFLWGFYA
T2 sequence (Q13113 1-114 partner): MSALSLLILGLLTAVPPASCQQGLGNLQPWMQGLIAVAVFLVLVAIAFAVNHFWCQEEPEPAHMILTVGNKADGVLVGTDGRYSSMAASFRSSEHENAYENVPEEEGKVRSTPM
Description: α-MG uptake in HEK293 cells, D201A mutant. Type of experiment: cell-based. Also on record: expressed in transfected cells.
From the text: hSGLT2 complementary DNA and human MAP17 cDNA were synthesized and codon-optimized for expression in human cell lines. Both cDNAs were cloned into the pcDNA3.4 vector. The hSGLT2 sequence was fused with an N-terminal signal sequence from human trypsinogen 1, a His10 tag, and sfGFP, followed by a human rhinovirus 3C protease (HRV3C protease) recognition site. Point mutations were introduced into this construct using site-directed mutagenesis. These plasmids were utilized for all experimental procedures conducted in this study. […]
as §1, §2
In the inhibition study, the cell-to-medium ratio of cells transfected with the empty vector was used as the background. The specific α-MG uptake was calculated by subtracting this background from the total cell-to-medium ratio and normalized to the uptake achieved without the inhibitor. […]

“And” between values parts separate entries of the source, which are not always exact repeats. Equal values may be shown once.

T1 sequence (P31639 whole entry S74A, one chain of several): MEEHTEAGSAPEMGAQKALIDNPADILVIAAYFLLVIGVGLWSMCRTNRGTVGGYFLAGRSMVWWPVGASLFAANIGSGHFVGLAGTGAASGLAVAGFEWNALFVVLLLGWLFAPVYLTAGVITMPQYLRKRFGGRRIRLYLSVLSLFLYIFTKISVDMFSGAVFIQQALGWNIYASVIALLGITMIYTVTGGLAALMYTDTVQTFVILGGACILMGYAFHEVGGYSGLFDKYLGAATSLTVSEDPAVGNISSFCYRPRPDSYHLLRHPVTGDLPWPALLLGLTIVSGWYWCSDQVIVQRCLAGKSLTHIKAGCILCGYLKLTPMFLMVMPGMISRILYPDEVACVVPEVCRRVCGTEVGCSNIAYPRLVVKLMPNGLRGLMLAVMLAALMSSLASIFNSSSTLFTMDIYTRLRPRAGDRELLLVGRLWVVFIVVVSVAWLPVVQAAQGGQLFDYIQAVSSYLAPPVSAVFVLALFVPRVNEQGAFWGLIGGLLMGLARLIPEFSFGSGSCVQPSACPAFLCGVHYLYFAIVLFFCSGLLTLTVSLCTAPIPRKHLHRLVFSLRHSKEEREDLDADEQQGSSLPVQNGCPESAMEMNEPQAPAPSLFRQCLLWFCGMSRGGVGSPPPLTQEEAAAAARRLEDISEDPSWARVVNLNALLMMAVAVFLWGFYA

Turning to `O=C(CCc1ccc(O)cc1)c1c(O)cc(O)cc1O[C@@H]1O[C@H](CO)[C@@H](O)[C@H](O)[C@H]1O` [Phlorizin], the remaining activity at 0.003 µM on hSGLT2 S74A (HEK293, read-out: α-MG uptake (% of control), Phlorizin 3 nM) came out at 95.3%. Moreover, at hSGLT2 S74A (HEK293, read-out: α-MG uptake (% of control), Phlorizin 30 nM), the remaining activity at 0.03 µM was 80.6%. In addition, on hSGLT2 S74A (HEK293, read-out: α-MG uptake (% of control), Phlorizin 100 nM), the remaining activity at 0.1 µM came out at 70.1%.

`CO[C@H]1O[C@H](CO)[C@@H](O)[C@H](O)[C@H]1O` [α-MG, α-methyl-D-glucopyranoside]: at hSGLT2 D201A (D201A mutant), the “uptake of α-MG (in words)” value was “No clear uptake”. Besides, the α-MG uptake on hSGLT2 D201A (Fig. 3h, D201A) was 6.25 μL/mg-protein and 10.67 μL/mg-protein and 6.52 μL/mg-protein.
